# From patent publication US7115600B2, “Histamine-3 receptor modulators” (Pfizer Inc., priority 2004, dated 2006)
# Biological target: T1, rat histamine H3 receptors (Rattus norvegicus, UniProt Q9QYN8)
# T1 construct: Frozen rat frontal brain or frozen human post-mortem frontal brain is homogenized; from tissue; host or cells: rat frontal brain membranes
# Experiment: Rat Histamine H3 Receptor Binding
# Settings: frozen rat frontal brain membranes; radioligand 1 nM 3H-N-methyl-histamine; 1 hour incubation; read-out: rH3 Ki
# T1 sequence (Q9QYN8 whole entry): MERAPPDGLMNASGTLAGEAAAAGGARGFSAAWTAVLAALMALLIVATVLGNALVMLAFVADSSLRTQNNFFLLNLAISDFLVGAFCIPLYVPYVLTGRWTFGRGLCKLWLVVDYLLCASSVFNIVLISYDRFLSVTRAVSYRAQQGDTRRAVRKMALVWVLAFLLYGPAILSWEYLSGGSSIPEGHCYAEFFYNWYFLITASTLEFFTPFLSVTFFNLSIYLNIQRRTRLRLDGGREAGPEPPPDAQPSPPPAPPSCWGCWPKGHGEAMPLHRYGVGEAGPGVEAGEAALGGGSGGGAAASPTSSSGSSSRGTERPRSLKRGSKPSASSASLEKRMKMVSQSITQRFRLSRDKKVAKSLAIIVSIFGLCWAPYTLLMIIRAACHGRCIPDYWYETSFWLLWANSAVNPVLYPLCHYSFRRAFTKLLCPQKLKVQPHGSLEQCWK
row,Ki [nM],SMILES
1,2.81,"CC1CCCC(C)N1C[C@H]1C[C@H](c2ccc(CN3CCCC3)cc2)C1 (stereo partly drawn) [Example 121, trans-2,6-Dimethyl-1-[3-(4-pyrrolidin-1-ylmethyl-phenyl)-cyclobutylmethyl]-piperidine]"
2,4.46,"CCN(CCO)C[C@H]1C[C@H](c2ccc(CN3CCCC3)cc2)C1 [Example 113, trans-2-{Ethyl-[3-(4-pyrrolidin-1-ylmethyl-phenyl)-cyclobutylmethyl]-amino}-ethanol]"
3,58,"Cc1cnc(OC[C@H]2C[C@@H](c3ccc(CN4CCCC4)cc3)C2)nc1C1CCNCC1 [Example 81, cis-5-Methyl-4-piperidin-4-yl-2-[3-(4-pyrrolidin-1-ylmethyl-phenyl)-cyclobutylmethoxy]-pyrimidine]"
4,74.2,"Cc1ccc(COCC2CC(c3ccc(CN4CCCC4)cc3)C2)cc1 (stereo not shown) [Example 27, 1-{4-[3-(4-Methyl-benzyloxymethyl)-cyclobutyl]-benzyl}-pyrrolidine]"
5,110,"Cc1nnc(OC[C@H]2C[C@@H](c3ccc(CN4CCCC4)cc3)C2)c2ccccc12 [Example 78, cis-1-Methyl-4-[3-(4-pyrrolidin-1-ylmethyl-phenyl)-cyclobutylmethoxy]-phthalazine]"
6,89.2,"N#Cc1cccc(COCC2CC(c3ccc(CN4CCCC4)cc3)C2)c1 (stereo not shown) [Example 5, 3-[3-(4-Pyrrolidin-1-ylmethyl-phenyl)-cyclobutylmethoxymethyl]-benzonitrile]"
7,2.09,"c1cc([C@H]2C[C@H](CN3CCCC3)C2)ccc1CN1CCCC1 [Example 107, trans-1-[3-(4-Pyrrolidin-1-ylmethyl-phenyl)-cyclobutylmethyl]-pyrrolidine]"
8,98.8,"c1ccc(COCC2CC(c3ccc(CN4CCCC4)cc3)C2)cc1 (stereo not shown) [Example 2, 1-[4-(3-Benzyloxymethyl-cyclobutyl)-benzyl]-pyrrolidine]"
9,23.2,"Cc1ccc(S(=O)(=O)OC[C@H]2C[C@@H](c3ccc(CN4CCCC4)cc3)C2)cc1 [Example 47, cis-Toluene-4-sulfonic acid 3-(4-pyrrolidin-1-ylmethyl-phenyl)-cyclobutylmethyl ester]"
10,1.44,"CN(C[C@H]1C[C@H](c2ccc(CN3CCCC3)cc2)C1)C1CCCCC1 [Example 115, trans-Cyclohexyl-methyl-[3-(4-pyrrolidin-1-ylmethyl-phenyl)-cyclobutylmethyl]-amine]"
11,5.38,"c1ccc(C2CCCN2C[C@H]2C[C@@H](c3ccc(CN4CCCC4)cc3)C2)nc1 (relative stereo) [Example 105, cis-2-{1-[3-(4-Pyrrolidin-1-ylmethyl-phenyl)-cyclobutylmethyl]-pyrrolidin-2-yl}-pyridine]"
12,79.4,"Fc1cc(F)cc(COCC2CC(c3ccc(CN4CCCC4)cc3)C2)c1 (stereo not shown) [Example 14, 1-(4-{-3-[(3,5-Difluoro-phenyl)methoxymethyl]-cyclobutyl}-benzyl)-pyrrolidine]"
13,3.79,"Cc1cnc(OC[C@H]2C[C@@H](c3ccc(CN4CCCC4)cc3)C2)nc1C1CCNC1 (relative stereo) [Example 88, cis-5-Methyl-4-pyrrolidin-3-yl-2-[3-(4-pyrrolidin-1-ylmethyl-phenyl)-cyclobutylmethoxy]-pyrimidine]"
14,99.2,"N#Cc1ccc(COCC2CC(c3ccc(CN4CCCC4)cc3)C2)cc1 (stereo not shown) [Example 7, 4-[3-(4-Pyrrolidin-1-ylmethyl-phenyl)-cyclobutylmethoxymethyl]-benzonitrile]"
15,8.35,"C[C@@H]1CN(C[C@H]2C[C@@H](c3ccc(CN4CCCC4)cc3)C2)C[C@H](C)O1 [Example 106, cis-(2R,6S)-2,6-Dimethyl-4-[3-(4-pyrrolidin-1-ylmethyl-phenyl)-cyclobutylmethyl]-morpholine]"
16,68.8,"Cc1cc(C(=O)Nc2ccccc2)nc(OC[C@H]2C[C@@H](c3ccc(CN4CCCC4)cc3)C2)n1 [Example 83, cis-6-Methyl-2[3-(4-pyrrolidin-1-ylmethyl-phenyl)-cyclobutylmethoxy]-pyrimidine-4-carboxylic acid phenylamide]"
17,5.65,"Cc1ccc(S(=O)(=O)OCC2CC(c3ccc(CN4CCCC4)cc3)C2)cc1 (stereo not shown) [Example 4, Toluene-4-sulfonic acid 3-(4-pyrrolidin-1-ylmethyl-phenyl)-cyclobutylmethyl ester]"
18,2.71,"CN(Cc1cccnc1)C[C@H]1C[C@H](c2ccc(CN3CCCC3)cc2)C1 [Example 122, trans-Methyl-pyridin-3-ylmethyl-[3-(4-pyrrolidin-1-ylmethyl-phenyl)-cyclobutylmethyl]-amine]"
19,4.81,"c1cc([C@H]2C[C@@H](CN3CCNCC3)C2)ccc1CN1CCCC1 [Example 101, cis-1-[3-(4-Pyrrolidin-1-ylmethyl-phenyl)-cyclobutylmethyl]-piperazine]"
20,2.82,"CN(Cc1ccccc1)C[C@H]1C[C@H](c2ccc(CN3CCCC3)cc2)C1 [Example 116, trans-Benzyl-methyl-[3-(4-pyrrolidin-1-ylmethyl-phenyl)-cyclobutylmethyl]-amine]"

row,Ki [nM],SMILES
1,2.78,"c1cc([C@H]2C[C@@H](CN3CCCCC3)C2)ccc1CN1CCCC1 [Example 104, cis-1-[3-(4-Pyrrolidin-1-ylmethyl-phenyl)-cyclobutylmethyl]-piperidine]"
2,42.5,"Cc1cc(C2CCNCC2)nc(OC[C@H]2C[C@@H](c3ccc(CN4CCCC4)cc3)C2)n1 [Example 77, cis-4-Methyl-6-piperidin-4-yl-2-[3-(4-pyrrolidin-1-ylmethyl-phenyl)-cyclobutylmethoxy]-pyrimidine]"
3,118,"COc1ccc(-c2cnc(OC[C@H]3C[C@@H](c4ccc(CN5CCCC5)cc4)C3)nc2)cc1 [Example 92, cis-5-(4-Methoxy-phenyl)-2-[3-(4-pyrrolidin-1-ylmethyl-phenyl)-cyclobutylmethoxy]-pyrimidine]"
4,0.65,"CC1CCCN(C[C@H]2C[C@H](c3ccc(CN4CCCC4)cc3)C2)C1 (relative stereo) [Example 118, trans-3-Methyl-1-[3-(4-pyrrolidin-1-ylmethyl-phenyl)-cyclobutylmethyl]-piperidine]"
5,101,"O=C1CN(C[C@H]2C[C@H](c3ccc(CN4CCCC4)cc3)C2)CCN1 [Example 127, trans-4-[3-(4-Pyrrolidin-1-ylmethyl-phenyl)-cyclobutylmethyl]-piperazin-2-one]"
6,0.73,"CC1CCCCN1C[C@H]1C[C@H](c2ccc(CN3CCCC3)cc2)C1 (relative stereo) [Example 117, trans-2-Methyl-1-[3-(4-pyrrolidin-1-ylmethyl-phenyl)-cyclobutylmethyl]-piperidine]"
7,98,"Cc1ccc(S(=O)(=O)OC[C@H]2C[C@H](c3ccc(CN4CCCC4)cc3)C2)cc1 [Example 48, trans-Toluene-4-sulfonic acid 3-(4-pyrrolidin-1-ylmethyl-phenyl)-cyclobutylmethyl ester]"
8,0.58,"c1cc([C@H]2C[C@H](CN3CCCCC3)C2)ccc1CN1CCCC1 [Example 108, trans-1-[3-(4-Pyrrolidin-1-ylmethyl-phenyl)-cyclobutylmethyl]-piperidine]"
9,0.77,"Fc1cnc(N2CCN(C[C@H]3C[C@H](c4ccc(CN5CCCC5)cc4)C3)CC2)nc1 [Example 112, trans-5-Fluoro-2-{4-[3-(4-pyrrolidin-1-ylmethyl-phenyl)-cyclobutylmethyl]-piperazin-1-yl}-pyrimidine]"
10,4.75,"Cc1cc(C2CCNC2)nc(OC[C@H]2C[C@@H](c3ccc(CN4CCCC4)cc3)C2)n1 (relative stereo) [Example 66, cis-4-Methyl-6-pyrrolidin-3-yl-2-[3-(4-pyrrolidin-1-ylmethyl-phenyl)-cyclobutylmethoxy]-pyrimidine]"
11,26.2,"Cc1cnc(OC[C@H]2C[C@@H](c3ccc(CN4CCCC4)cc3)C2)nc1C1CCCNC1 (relative stereo) [Example 59, cis-5-Methyl-4-piperidin-3-yl-2-[3-(4-pyrrolidin-1-ylmethyl-phenyl)-cyclobutylmethoxy]-pyrimidine]"
12,3.93,"c1cc([C@H]2C[C@@H](CN3CCCC3)C2)ccc1CN1CCCC1 [Example 103, cis-1-[3-(4-Pyrrolidin-1-ylmethyl-phenyl)-cyclobutylmethyl]-pyrrolidine]"
13,7.28,"c1cc(C2CCNC2)nc(OC[C@H]2C[C@@H](c3ccc(CN4CCCC4)cc3)C2)n1 (relative stereo) [Example 65, cis-4-Pyrrolidin-3-yl-2-[3-(4-pyrrolidin-1-ylmethyl-phenyl)-cyclobutylmethoxy]-pyrimidine]"
14,3.35,"CC1CCCN1C[C@H]1C[C@H](c2ccc(CN3CCCC3)cc2)C1 (relative stereo) [Example 120, trans-2-Methyl-1-[3-(4-pyrrolidin-1-ylmethyl-phenyl)-cyclobutylmethyl]-pyrrolidine]"
15,1.89,"C[C@@H]1CN(C[C@H]2C[C@H](c3ccc(CN4CCCC4)cc3)C2)C[C@H](C)O1 [Example 126, trans-(2R,6S)-2,6-Dimethyl-4-[3-(4-pyrrolidin-1-ylmethyl-phenyl)-cyclobutylmethyl]-morpholine]"
16,1.34,"CC1CCN(C[C@H]2C[C@H](c3ccc(CN4CCCC4)cc3)C2)CC1 [Example 119, trans-4-Methyl-1-[3-(4-pyrrolidin-1-ylmethyl-phenyl)-cyclobutylmethyl]-piperidine]"
17,1.83,"Fc1cnc(N2CCN(C[C@H]3C[C@@H](c4ccc(CN5CCCC5)cc4)C3)CC2)nc1 [Example 102, cis-5-Fluoro-2-{4-[3-(4-pyrrolidin-1-ylmethyl-phenyl)-cyclobutylmethyl]-piperazin-1-yl}-pyrimidine]"
18,122,"N#Cc1ccccc1COCC1CC(c2ccc(CN3CCCC3)cc2)C1 (stereo not shown) [Example 6, 2-[3-(4-Pyrrolidin-1-ylmethyl-phenyl)-cyclobutylmethoxymethyl]-benzonitrile]"
19,33.6,"Cc1ccc(C)n1-c1ccc(OC[C@H]2C[C@@H](c3ccc(CN4CCCC4)cc3)C2)nn1 [Example 90, cis-3-(2,5-Dimethyl-pyrrol-1-yl)-6-{[3-(4-pyrrolidin-1-ylmethyl-phenyl)-cyclobutylmethyl]oxy}-pyridazine]"
20,101,"CCc1cnc(OC[C@H]2C[C@H](c3ccc(CN4CCCC4)cc3)C2)nc1 [Example 57, trans-5-Ethyl-2-[3-(4-pyrrolidin-1-ylmethyl-phenyl)-cyclobutylmethoxy]-pyrimidine]"
